According to the supplement of paper PMC10477900:
Where a name gives a salt, the structure may show the parent alone.

Key:
[1] = tested on: HCT116; assay: viability inhibition vs untreated; higher = more cytotoxic; conditions: 72 h
[2] = tested on: HCT116; conditions: 72 h
Experimental: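 HCT116 control and MTA1-KO (CRISPR) HCT116 cells were seeded in 384-well plates (800 cells/well), treated 16 h later with 237 metabolism-related anticancer drugs at five doses (10 uM, 2 uM, 400 nM, 80 nM, 16 nM) for 72 h, two replicates; viability by CCK8. Values are % inhibition of viability relative to untreated cells, plus fitted IC50.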

Row | SMILES | viability inhibition ([1]; genotype: MTA1-KO, 16 nM) | viability inhibition ([1]; genotype: MTA1-KO, 80 nM) | viability inhibition ([1]; genotype: MTA1-KO, 400 nM) | viability inhibition ([1]; genotype: MTA1-KO, 2000 nM) | viability inhibition ([1]; genotype: MTA1-KO, 10000 nM) | viability inhibition ([1]; genotype: control, 16 nM) | viability inhibition ([1]; genotype: control, 80 nM) | viability inhibition ([1]; genotype: control, 400 nM) | viability inhibition ([1]; genotype: control, 2000 nM) | viability inhibition ([1]; genotype: control, 10000 nM) | IC50 ([2]; genotype: MTA1-KO) | IC50 ([2]; genotype: control)
1 | N[C@@H](CSCCB(O)O)C(=O)O [BEC HCl] | 7.68% | -6.82% | -3.32% | 5.74% | 56.8% | -17.3% | -19% | -3.82% | -14% | -7.11% | 8.12 µM | > 10 µM
2 | COc1ccc(-c2ccc3ncc4c(c3c2)n(-c2ccc(N3CCNCC3)c(C(F)(F)F)c2)c(=O)n4C)cn1 [BGT226] | 3.91% | 56.3% | 83% | 97.4% | 106% | -4.27% | 60.1% | 90.7% | 99% | 116% | 0.0773 µM | 0.0713 µM
3 | O=C(Cc1ccccc1)Nc1nnc(CCSCCc2nnc(NC(=O)Cc3ccccc3)s2)s1 [BPTES] | -12.8% | -12.2% | 0.728% | 8.71% | 41.5% | -3.88% | -3.14% | -1.6% | -0.809% | -19.2% | > 10 µM | > 10 µM
4 | C/C(=C1/C(=O)Nc2ccc(NC(N)=O)cc21)c1ccc[nH]1 [BX517] | -1.27% | -4.96% | -15% | -7.43% | 62.3% | 7.33% | -2.63% | 0.244% | 10.4% | 67.6% | 7.24 µM | 6.88 µM
5 | O=C(NCCCNc1nc(Nc2cccc(NC(=O)N3CCCC3)c2)ncc1I)c1cccs1 [BX795] | -13.8% | -8.82% | -26.4% | -9.81% | -6.85% | -1.4% | -15% | -1.64% | 18.7% | 7.91% | > 10 µM | > 10 µM
6 | O=C(Nc1cccc(Nc2ncc(Br)c(NCCc3cnc[nH]3)n2)c1)N1CCCC1 [BX912] | -9.54% | 7.13% | 22.8% | 64.5% | 92.4% | -0.895% | -7.72% | 13.9% | 47.2% | 75.2% | 1.27 µM | 1.5 µM
7 | CC1(C)CC[C@]2(C(=O)O)CC[C@]3(C)[C@H](C(=O)C=C4[C@@]5(C)C=C(C#N)C(=O)C(C)(C)[C@@H]5CC[C@]43C)[C@@H]2C1 [Bardoxolone] | 6.64% | -8.28% | -9% | 44.1% | 103% | -7.41% | -6.83% | -2.5% | 40.7% | 103% | 3.04 µM | 2.54 µM
8 | NS(=O)(=O)c1cc2c(cc1C(F)(F)F)NC(Cc1ccccc1)NS2(=O)=O (stereo not drawn) [Bendroflumethiazide] | -4.82% | -2.33% | -5.2% | -12.6% | -13.6% | 0.542% | -1.18% | -14.6% | 4.49% | -9.53% | > 10 µM | > 10 µM
9 | NS(=O)(=O)c1ccccc1 [Benzenesulfonamide] | 3.96% | -4.26% | 4.06% | 12.2% | 54.7% | 7.65% | 12.9% | 10.8% | 25.5% | 55.6% | 9.29 µM | 8.77 µM
